“And” between values parts separate entries of the source, which are not always exact repeats. Equal values may be shown once. Read-outs that look alike come from different tables or passages of the source.
Legend:
[1] = tested on: Enterobacter cloacae (ECL) isolates; test: MIC of compounds alone and combined with antibacterials, broth microdilution (CLSI); format: cell-based
In short: (§1)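 First, log-phase suspensions are brought to 5.10^5 CFU/mL final in ca-MHB; plates then incubate 16-20 h at 35° C in air. Growth is judged visually, giving the compound MIC alone and the antibacterial MIC at each compound concentration.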

[2] = tested on: Escherichia coli (ECO) isolates; test: as above; format: cell-based
In short: as §1

CC1(C)S[C@@H]2[C@H](NC(=O)[C@H](N)c3ccc(O)cc3)C(=O)N2[C@H]1C(=O)O [AMX, Amoxicillin]
MIC ATB in combination [1]: >128 µg/mL | MIC ATB in combination ([1]; ECL 190408, AF2 @ 8 μg/mL): <=0.25 μg/mL | MIC ATB in combination ([1]; ECL 200322, AF2 @ 8 μg/mL): <0.25 µg/mL | MIC ATB in combination ([1]; ECL 260253, AF2 @ 8 μg/mL): <0.25 µg/mL | MIC ATB in combination ([1]; ECL 260323, AF2 @ 8 μg/mL): <0.25 µg/mL | MIC ATB in combination ([1]; ECL 260508, AF2 @ 8 μg/mL): <0.25 µg/mL | MIC ATB in combination ([1]; ECL P99, CLA @ 4 μg/mL): >512 µg/mL | MIC ATB in combination ([1]; ECL UFR12, AF2 @ 8 μg/mL): <0.25 µg/mL | MIC ATB in combination ([1]; ECL UFR38, AF2 @ 8 μg/mL): <=0.25 μg/mL | MIC ATB in combination ([1]; ECL UFR51, AF2 @ 8 μg/mL): <0.25 µg/mL | MIC ATB in combination ([1]; ECL UFR70, AF2 @ 8 μg/mL): 0.5 µg/mL | MIC ATB in combination ([1]; ECL UFR85, AF2 @ 8 μg/mL): <0.25 µg/mL | MIC ([1]; strain ECL 2185D, genotype OXA-163): >256 µg/mL | MIC ([1]; strain ECL 190310, genotype AmpC): >256 µg/mL | MIC ([1]; strain ECL 190408, genotype TEM-1, CTX-M-15, OXA-1): >256 µg/mL | MIC ([1]; strain ECL 200138, genotype AmpC): >256 µg/mL | MIC ([1]; strain ECL 200322, genotype TEM-1, CTX-M-15, OXA-1): >256 µg/mL | MIC ([1]; strain ECL 260033, genotype AmpC): >256 µg/mL | MIC ([1]; strain ECL 260253, genotype TEM-1, KPC-3): >256 µg/mL | MIC ([1]; strain ECL 260323, genotype AmpC): >256 µg/mL | MIC ([1]; strain ECL 260508, genotype TEM-1, CTX-M-15): >256 µg/mL | MIC ([1]; strain ECL HAN, genotype OXA-35): >256 µg/mL | MIC ([1]; strain ECL NEM146383, genotype AmpC): >256 µg/mL | MIC ([1]; strain ECL P99, genotype AmpC): >1024 µg/mL | MIC ([1]; strain ECL UFR12, genotype CTX-M-9, OXA-48): >256 µg/mL | MIC ([1]; strain ECL UFR13, genotype TEM-1, SHV-12, CTX-M-9, OXA-48): >256 µg/mL | MIC ([1]; strain ECL UFR14, genotype TEM-1, SHV-12, CTX-M-15, DHA-1, OXA-1, OXA-48): >256 µg/mL | MIC ([1]; strain ECL UFR38, genotype CTX-M-15, NDM-1): >256 µg/mL | MIC ([1]; strain ECL UFR51, genotype SHV-12, IMP-8): >256 µg/mL | MIC ([1]; strain ECL UFR60, genotype TEM-1, CTX-M-15, KPC-2): >256 µg/mL | MIC ([1]; strain ECL UFR70, genotype TEM-1, CTX-M-15, CMY-2, OXA-1, Porin loss): >256 µg/mL | MIC ([1]; strain ECL UFR84, genotype TEM-1, AmpC, OXA-1): >256 µg/mL | MIC ([1]; strain ECL UFR85, genotype TEM-1, CTX-M-15, AmpC): >256 µg/mL | MIC ([1]; strain ECL UFR192, genotype TEM-1, NDM-1, antibiotic alone): >128 µg/mL | MIC ([1]; strain ECL UFR193, genotype TEM-1, CTX-M-15, OXA-1, NDM-1, RmtC, antibiotic alone): >128 µg/mL | MIC ([1]; strain ECL UFR194, genotype OXA-48): >128 µg/mL | MIC ([1]; strain ECL UFR195, genotype TEM-1, CTX-M-15, OXA-1, OXA-48): >128 µg/mL | MIC ([1]; strain ECL UFR196, genotype TEM-1, CTX-M-15, OXA-1, OXA-48): >128 µg/mL | MIC ([1]; strain ECL UFR197, genotype TEM-1, CTX-M-15, OXA-1, OXA-48): >128 µg/mL | MIC ([1]; strain ECL UFR198, genotype TEM-1, SHV-12, CTX-M-15, DHA-1, OXA-1, OXA-48): >128 µg/mL | MIC ([1]; strain ECL UFR200, genotype TEM-1, SHV-12, KPC-2): >128 µg/mL | MIC ([1]; strain ECL UFR203, genotype TEM-1, SHV-12, VIM-1, antibiotic alone): >128 µg/mL | MIC ([1]; strain ECL UFR214, genotype TEM-1, SHV-31, CTX-M-15, VIM-4, antibiotic alone): >128 µg/mL | MIC ([1]; strain ECL UFR252PT, genotype VIM-2, antibiotic alone): >128 µg/mL | MIC ATB in combination [2]: >128 µg/mL and 128 µg/mL | MIC ATB in combination ([2]; ECO 4133, AF2 @ 8 μg/mL): <0.25 µg/mL | MIC ATB in combination ([2]; ECO 5302, AF2 @ 8 μg/mL): <0.25 µg/mL | MIC ATB in combination ([2]; ECO 131119, AF2 @ 8 μg/mL): <0.25 µg/mL | MIC ATB in combination ([2]; ECO 131119, CLA @ 4 μg/mL): >512 µg/mL | MIC ATB in combination ([2]; ECO 180070, AF2 @ 8 μg/mL): <0.25 µg/mL | MIC ATB in combination ([2]; ECO 180070, CLA @ 4 μg/mL): 16 µg/mL | MIC ATB in combination ([2]; ECO 190314, AF2 @ 8 μg/mL): <0.25 µg/mL | MIC ATB in combination ([2]; ECO 190314, CLA @ 4 μg/mL): 8 µg/mL | MIC ATB in combination ([2]; ECO 190317, AF2 @ 8 μg/mL): <0.25 µg/mL | MIC ATB in combination ([2]; ECO 190317, CLA @ 4 μg/mL): 64 µg/mL | MIC ATB in combination ([2]; ECO 190457, AF2 @ 8 μg/mL): <0.25 µg/mL | MIC ATB in combination ([2]; ECO 190549, AF2 @ 8 μg/mL): <0.25 µg/mL | MIC ATB in combination ([2]; ECO 190549, CLA @ 4 μg/mL): 8 µg/mL | MIC ATB in combination ([2]; ECO 200159, AF2 @ 8 μg/mL): <0.25 µg/mL | MIC ATB in combination ([2]; ECO 200159, CLA @ 4 μg/mL): 8 µg/mL | MIC ATB in combination ([2]; ECO 200259, AF2 @ 8 μg/mL): <0.25 µg/mL | MIC ATB in combination ([2]; ECO 200259, CLA @ 4 μg/mL): 8 µg/mL | MIC ATB in combination ([2]; ECO 200344, AF2 @ 8 μg/mL): <0.25 µg/mL | MIC ATB in combination ([2]; ECO 200344, CLA @ 4 μg/mL): 16 µg/mL | MIC ATB in combination ([2]; ECO 260096, AF2 @ 8 μg/mL): 0.5 µg/mL | MIC ATB in combination ([2]; ECO 260096, CLA @ 4 μg/mL): 4 µg/mL | MIC ATB in combination ([2]; ECO 260304, AF2 @ 8 μg/mL): <0.25 µg/mL | MIC ATB in combination ([2]; ECO 260304, CLA @ 4 μg/mL): 4 µg/mL | MIC ATB in combination ([2]; ECO 260508, AF2 @ 8 μg/mL): <0.25 µg/mL | MIC ATB in combination ([2]; ECO 260508, CLA @ 4 μg/mL): 64 µg/mL | MIC ATB in combination ([2]; ECO RGN238, AF2 @ 8 μg/mL): <0.25 µg/mL | MIC ATB in combination ([2]; ECO UFR15, AF2 @ 8 μg/mL): <0.25 µg/mL | MIC ATB in combination ([2]; ECO UFR16, AF2 @ 8 μg/mL): <0.25 µg/mL | MIC ATB in combination ([2]; ECO UFR18, AF2 @ 8 μg/mL): <0.25 µg/mL | MIC ATB in combination ([2]; ECO UFR19, AF2 @ 8 μg/mL): <0.25 µg/mL | MIC ATB in combination ([2]; ECO UFR32, AF2 @ 8 μg/mL): <0.25 µg/mL | MIC ATB in combination ([2]; ECO UFR39, AF2 @ 8 μg/mL): <0.25 µg/mL | MIC ATB in combination ([2]; ECO UFR41, AF2 @ 8 μg/mL): <0.25 µg/mL | MIC ATB in combination ([2]; ECO UFR45, AF2 @ 8 μg/mL): <0.25 µg/mL | MIC ATB in combination ([2]; ECO UFR61O, AF2 @ 8 μg/mL): 4 µg/mL | MIC ATB in combination ([2]; ECO UFR62, AF2 @ 8 μg/mL): <0.25 µg/mL | MIC ATB in combination ([2]; ECO UFR74, AF2 @ 8 μg/mL): <0.25 µg/mL | MIC ATB in combination ([2]; ECO UFR86, AF2 @ 8 μg/mL): 2 µg/mL | MIC ATB in combination ([2]; ECO UFR86, CLA @ 4 μg/mL): 8 µg/mL

From patent US20200017495A1, “NOVEL HETEROCYCLIC COMPOUNDS AND THEIR USE IN PREVENTING OR TREATING BACTERIAL INFECTIONS” (priority 2017, published 2020)
